Results as given in patent US20070021484A1, “Substituted N-cinnamyl benzamides” (ChemoCentryx, Inc., priority 2005, published 2007).
Counter-ions that a name gives are not always drawn.

Molecular target: T1, CCXCKR2 receptor (Homo sapiens, UniProt P25106)
T1 construct: The compounds were combined with mammary gland cells expressing the CCXCKR2 receptor in the presence of the ^125I-labeled chemokine; host or cells: MCF-7 (endogenous receptor) and/or MDA-MB-435S stably transfected with pcDNA3.1(+)-hRDC1
T1 sequence (P25106 whole entry): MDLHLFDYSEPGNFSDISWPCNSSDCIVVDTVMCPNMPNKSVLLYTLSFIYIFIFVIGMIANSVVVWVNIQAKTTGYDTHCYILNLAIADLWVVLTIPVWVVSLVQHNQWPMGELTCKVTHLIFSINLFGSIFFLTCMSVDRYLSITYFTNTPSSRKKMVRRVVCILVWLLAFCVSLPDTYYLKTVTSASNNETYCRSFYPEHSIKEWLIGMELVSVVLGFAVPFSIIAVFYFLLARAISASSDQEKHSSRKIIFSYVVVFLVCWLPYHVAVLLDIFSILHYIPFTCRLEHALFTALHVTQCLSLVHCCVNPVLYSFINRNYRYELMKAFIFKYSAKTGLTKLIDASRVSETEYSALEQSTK
Experiment: Displacement of 125I-labeled SDF-1 from the CCXCKR2 receptor (radioligand binding, determination of IC50 values)
Conditions: concentration displacing at least 50% of 125I SDF-1 from CCXCKR2; MCF-7 and/or CCXCKR2 transfected MDA-MB-435S cells; 3 hr at 4° C.
Procedure: The ability of the compounds to displace the labeled chemokine from the CCXCKR2 receptor sites at multiple concentrations was then determined with the screening process.
Compounds that were deemed effective modulators were able to displace at least 50% of the SDF-1 from the CCXCKR2 receptor at concentrations at or below 2.1 micromolar (μM), as represented by the notation (+) for certain exemplary compounds shown in Table B below, and more preferably at concentrations at or below 700 nanomolar (nM) (++). At present, especially preferred compounds can displace at least 50% of the SDF-1 from the CCXCKR2 receptor at concentrations at or below 500 nM (+++). As stated above, Exemplary compounds that met these criteria are reproduced in Table B below. All compounds were prepared as described in the Examples above, or by related methods substituting readily available starting materials.
Reagents and Cells. ^125I-labeled SDF-1 was purchased from Perkin-Elmer Life Sciences, Inc. (Boston, Mass.). The MCF-7 (adenocarcinoma; mammary gland) cell line was obtained from the American Type Culture Collection (Manassas, Va.) or and was cultured in DMEM (Mediatech, Herndon, Va.) supplemented with 10% fetal bovine serum (FBS) (HyClone Logan, Utah) and bovine insulin (0.01 mg/mL) (Sigma, St. Louis, Mo.) at 37° C. in a humidified incubator at a 5% CO2/air mixture. CCXCKR2 transfected MDA-MB-435S were produced as described below. MDA-MB-435S human breast cancer line, was purchased from ATCC, and cultured in DMEM/10% FBS medium. The complete coding sequence of the gene encoding CCXCKR2 (a.k.a.CXCR^7, hRDC1), was isolated from MCF-7 cells using μMACs mRNA isolation kit (Miltenyi Biotec, Auburn, Calif.). DNA contamination was removed by DNase digestion via RNeasy columns (Qiagen, Inc., Valencia, Calif.) and cDNA was generated using GeneAmp RNA PCR Core Kit (Applied Biosystems, Foster City, Calif.). PCR of cDNA samples was performed using Taq PCR Master Mix kit (Qiagen, Inc.) and hRDC1 primers harboring 5′ and 3′ Not I sites
Binding Analysis. Target compounds were tested to determine their ability to bind with CCXCKR2 sites on MCF-7 and/or MDA-MB-435S cells. Efficiency-maximized radioligand binding using filtration protocols as described in Dairaghi D J, et al., HHV8-encoded vMIP-I selectively engages chemokine receptor CCR5. Agonist and antagonist profiles of viral chemokines., J. Biol. Chem. 1999 Jul. 30; 274(31): 21569-74 and Gosling J, et al., Cutting edge: identification of a novel chemokine receptor that binds dendritic cell- and T cell-active chemokines including ELC, SLC, and TECK., J. Immunol. 2000 Mar. 15; 164(6):2851-6 was used.
In these assays, MCF-7 and/or MDA-MB-435S cells were interrogated with the target compounds and the ability of these compounds to displace ^125I radiolabeled SDF-1 was assessed using the protocol described in Dairaghi and Gosling. The target compounds were added to the plate to the indicated concentration and were then incubated with cells followed by the addition of radiolabeled chemokine (^125I SDF-1) for 3 hr at 4° C. in the following binding medium (25 mM HEPES, 140 mM NaCl, 1 mM CaCl2, 5 mM MgCl2 and 0.2% bovine serum albumin, adjusted to pH 7.1). All assays were then incubated for 3 hrs at 4° C. with gentle agitation. Following incubation in all binding assays, reactions were aspirated onto PEI-treated GF/B glass filters (Packard) using a cell harvester (Packard) and washed twice (25 mM HEPES, 500 mM NaCl, 1 mM CaCl2, 5 mM MgCl2, adjusted to pH 7.1). Scintillant (MicroScint 10, Packard) was added to the wells, and the filters were counted in a Packard Topcount scintillation counter. Data were analyzed and plotted using Prism (GraphPad Prism version 3.0a for Macintosh, GraphPad Software, www.graphpad.com).

Row | Compound | IC50 [nM]
1 | COc1ccc(C(=O)N(C/C(C)=C/c2ccc(F)cc2F)C[C@@H]2CCCN2CC2CCC(N)CC2)cc1OC (stereo partly drawn) [Compound 10, N-[(S)-1-(4-Amino-cyclohexylmethyl)-pyrrolidin-2-ylmethyl]-N-[(E)-3-(2,4-difluoro-phenyl)-2-methyl-allyl]-3,4-dimethoxy-benzamide] | ≤ 500
2 | COc1cc(C(=O)N(C/C(C)=C/c2ccc(F)cc2F)C[C@@H]2C[C@@H]3CCCC[C@@H]3N2)cc2c1OC(C)(C)O2 [Compound 4, 7-Methoxy-2,2-dimethyl-benzo[1,3]dioxole-5-carboxylic acid [(E)-3-(2,4-difluoro-phenyl)-2-methyl-allyl]-[(2S,3aS,7aS)-1-(octahydro-indol-2-yl)methyl]-amide] | ≤ 500
3 | COc1cc(C(=O)N(C/C(C)=C/c2ccccc2)C[C@@H]2C[C@@H]3CCCC[C@@H]3N2)cc2c1OC(C)(C)O2 [Compound 1, 7-Methoxy-2,2-dimethyl-benzo[1,3]dioxole-5-carboxylic acid (2-methyl-3-phenyl-allyl)-[(2S,6S,7S)-1-(octahydro-indol-2-yl)methyl]-amide] | ≤ 500
4 | COc1cc(C(=O)N(C/C(C)=C/c2ccc(F)cc2F)C[C@@H]2C[C@@H]3CCCC[C@@H]3N2)ccc1OC(F)F [Compound 3, 4-Difluoromethoxy-N-[(E)-3-(2,4-difluoro-phenyl)-2-methyl-allyl]-3-methoxy-N-[(2S,3aS,7aS)-1-(octahydro-indol-2-yl)methyl]-benzamide] | ≤ 500
5 | COc1cc(C(=O)N(C/C(C)=C/c2ccc(F)cc2F)C[C@@H]2CCCN2C[C@H]2CC[C@@H](NS(C)(=O)=O)CC2)ccc1OC(F)F [Compound 11] | ≤ 500
6 | COc1ccc(C(=O)N(C/C(C)=C/c2ccc(F)cc2F)C[C@@H]2C[C@@H]3CCCC[C@@H]3N2)cc1OC [Compound 5, N-[(E)-3-(2,4-Difluoro-phenyl)-2-methyl-allyl]-3,4-dimethoxy-N-[(2S,3aS,7aS)-1-(octahydro-indol-2-yl)methyl]-benzamide] | ≤ 500
7 | COc1ccc(C(=O)N(C/C(C)=C/c2ccc(F)cc2F)C[C@@H]2CCCN2C[C@H]2CC[C@H](NS(C)(=O)=O)CC2)cc1OC [Compound 9, N-(S)-[(E)-3-(2,4-Difluoro-phenyl)-2-methyl-allyl]-N-[(S)-1-(4-methanesulfonylamino-cyclohexylmethyl)-pyrrolidin-2-ylmethyl]-3,4-dimethoxy-benzamide] | ≤ 500
8 | COc1ccc(C(=O)N(C/C(C)=C/c2ccc(F)cc2F)C[C@@H]2CCCN2C[C@H]2CC[C@@H](N)C2)cc1OC [Compound 7, N-[(S)-1-((1S,3R)-3-Amino-cyclopentylmethyl)-pyrrolidin-2-ylmethyl]-N-[(E)-3-(2,4-difluoro-phenyl)-2-methyl-allyl]-3,4-dimethoxy-benzamide] | ≤ 500
9 | COc1cc(C(=O)N(C/C(C)=C/c2ccccc2)CC2CCCN2C[C@H]2CC[C@@H](NC(C)C)CC2)cc2c1OC(C)(C)O2 (stereo partly drawn) [Compound 6, Methoxy-2,2-dimethyl-benzo[1,3]dioxole-5-carboxylic acid [(S)-1-(4-isopropylamino-cyclohexylmethyl)-pyrrolidin-2-ylmethyl]-((E)-2-methyl-3-phenyl-allyl)-amide] | ≤ 500
10 | COc1cc(C(=O)N(C/C(C)=C/c2ccccc2)C[C@@H]2C[C@@H]3CCC[C@@H]3N2)cc2c1OC(C)(C)O2 [Compound 2, 7-Methoxy-2,2-dimethyl-benzo[1,3]dioxole-5-carboxylic acid (2-methyl-3-phenyl-allyl)-[(2S,5S,6S)-1-(octahydro-cyclopenta[b]pyrrol-2-yl)methyl]-amide] | ≤ 500

Further lines, results first:

Row | IC50 [nM] | Compound
11 | ≤ 500 | COc1cc(C(=O)N(C/C(C)=C/c2ccc(F)cc2F)C[C@@H]2CCCN2CC2(N(C)C)CCCC2)ccc1OC(F)F (stereo in doubt) [Compound 15, 4-Difluoromethoxy-N-[3-(2,4-difluoro-phenyl)-2-methyl-allyl]-N-[1-(1-dimethylamino-cyclopentylmethyl)-pyrrolidin-2-ylmethyl]-3-methoxy-benzamide]
12 | ≤ 700 | COc1cc(C(=O)N(C/C(C)=C/c2ccc(F)cc2F)CC2CCCN2CC2(N)CCCC2)ccc1OC(F)F (stereo not drawn) [Compound 16, N-[1-(1-Amino-cyclopentylmethyl)-pyrrolidin-2ylmethyl]-4-difluoromethoxy-N-[3-(2,4-difluoro-phenyl)-2-methyl-allyl]-3-methoxy-benzamide]
13 | ≤ 2100 | COc1ccc(C(=O)N(C/C(C)=C/c2ccc(F)cc2F)CC2CCC3COCCN32)cc1OC (stereo not drawn) [Compound 20]
14 | ≤ 2100 | COc1cc(C(=O)N(C/C(C)=C/c2ccc(F)cc2F)Cc2nccn2C)ccc1OC(F)F [Compound 18, 4-difluoromethoxy-N-[3-(2,4-difluoro-phenyl)-2-methyl-allyl]-3-methoxy-N-(1-methyl-1H-imidazol-2-ylmethyl)-benzamide]
15 | ≤ 500 | COc1ccc(C(=O)N(CC2=NCCN2)C/C(C)=C/c2ccc(F)cc2F)cc1OC [Compound 19, N-[(E)-3-(2,4-Difluoro-phenyl)-2-methyl-allyl]-N-(4,5-dihydro-1 H-imidazol-2-ylmethyl)-3,4-dimethoxy-benzamide hydrochloride]
16 | ≤ 500 | COc1cc(C(=O)N(C/C(C)=C/c2ccc(F)cc2F)C[C@H]2CCCN2C[C@H]2CC[C@@H](N)CC2)ccc1OC(F)F [Compound 14]
17 | ≤ 500 | COc1ccc(C(=O)N(C/C(C)=C/c2ccc(F)cc2F)C[C@@H]2CCCN2C[C@H]2CC[C@@H](N)CC2)cc1OC [Compound 13, N-[1-(4-amino-cyclohexylmethyl)-pyrrolidin-2-ylmethyl]-N-[3-(2,4-difluoro-phenyl)-2-methyl-allyl]-3,4-dimethoxy-benzamide]
18 | ≤ 500 | COc1cc(C(=O)N(C/C(C)=C/c2ccc(F)cc2F)CC2CCCN2CC2(NS(C)(=O)=O)CCCC2)ccc1OC(F)F (stereo not drawn) [Compound 17]
